Test results from patent publication US20240246902A1, “PRODRUGS OF 6-DIAZO-5-OXO-L-NORLEUCINE” (THE JOHNS HOPKINS UNIVERSITY, priority 2021, published 2024).
≈ marks a conversion by molar mass, not a printed value. Read-outs that look alike come from different tables or passages of the source.

What was measured:
[1] = Metabolic stability in swine liver tissue homogenate; assay type: in vitro ADME; settings: prodrug 20 μM, 37° C.
Procedure: (§1) The representative Compounds of the Disclosure were screened for metabolic stability in swine jejunum/liver tissue homogenates, following our previously reported methods (Zimmermann et al., J. Med. Chem., 61(9):3918-29 (2018); Tenora et al., J. Med. Chem., 62(7):3524-38 (2019)). In brief, freshly collected tissues were homogenized by probe sonication in 9× volume of 0.1 M potassium phosphate buffer over ice. Post homogenization, prodrugs were spiked at a concentration of 20 μM (in triplicate) and incubated in an orbital shaker at 37° C. for 60 min. Final concentration of DMSO in the incubations was 0.2% v/v. At each time point (0, 30, 60 min), 100 μL of sample was precipitated with 300 μL of methanol containing internal standard (IS; losartan: 0.5 μM). […] After centrifugation, 50 μL of supernatant was diluted with 50 μL of water, vortexed and submitted for analysis. Prodrug disappearance over time was measured using liquid chromatography tandem mass spectrometry (LC-MS/MS).
(§2) The processed supernatants were analyzed on a Thermo Scientific Vanquish UPLC system (equipped with Vanquish autosampler, pumps, and column compartment) hyphenated to TSQ Altis mass spectrometer (Thermo Fisher Scientific Inc., Waltham MA). […] The autosampler was operated at 4° C. […] Peak area ratios obtained from peak area counts of analyte and internal standard were used to measure the disappearance of prodrugs.

[2] = Metabolic stability in swine jejunum (gut) tissue homogenate; assay type: in vitro ADME; settings: prodrug 20 μM, 37° C.
Procedure: as §1, §2

[3] = Plasma stability, plasma from CES1KO mice; settings: CES1KO = Mouse Plasma from CES1KO mice
[4] = Plasma stability, mouse plasma; settings: MP = Mouse Plasma

Structure (SMILES)	Liver stability (% remaining at 60 min) [1] [%]	solubility (Solubility) [µg/mL]	Efflux (Efflux)	Gut Stability (% remaining at 60 min) [2] [%]	Plasma Stability (% remaining at 60 min) [3]	Plasma Stability (% remaining at 60 min) [4]	Efflux (Efflux; not told)
CCCC(=O)N[C@@H](CCC(=O)C=[N+]=[N-])C(=O)OC(C)C [Compound 5b, Isopropyl (S)-2-butyramido-6-diazo-5-oxohexanoate]	12 ± 1	~5000 (≈ 17.6 mM)	–	–	–	–	–
CCCCCC(=O)N[C@@H](CCC(=O)C=[N+]=[N-])C(=O)OC(C)C [Compound 5c, Isopropyl (S)-6-diazo-2-hexanamido-5-oxohexanoate]	0 ± 0	~2000 (≈ 6.42 mM)	–	–	–	–	–
CC(C)OC(=O)[C@H](CCC(=O)C=[N+]=[N-])NC(=O)CN(C)C [Compound 5d, Isopropyl (S)-6-diazo-2-(2-(dimethylamino)acetamido)-5-oxohexanoate]	76 ± 0	–	2	98 ± 2	–	–	–
CC(C)OC(=O)[C@H](CCC(=O)C=[N+]=[N-])NC(=O)c1cccnc1 [Compound 5f, Isopropyl (S)-6-diazo-2-(nicotinamido)-5-oxohexanoate]	0 ± 0	~5000 (≈ 15.7 mM)	–	–	–	–	–
CC(=O)N[C@@H](CCC(=O)C=[N+]=[N-])C(=O)OC(C)(C)C [Compound 5g, tert-Butyl (S)-2-acetamido-6-diazo-5-oxohexanoate]	2 ± 0	–	1	93 ± 1	–	–	–
CC(C)(C)OC(=O)[C@H](CCC(=O)C=[N+]=[N-])NC(=O)C(Cl)Cl [Compound 5i, tert-Butyl (S)-6-diazo-2-(2,2-dichloroacetamido)-5-oxohexanoate]	97 ± 0	–	1	110 ± 2	–	–	–
CC(C)(C)OC(=O)[C@H](CCC(=O)C=[N+]=[N-])NC(=O)c1cccnc1 [Compound 5j, tert-Butyl (S)-6-diazo-2-(nicotinamido)-5-oxohexanoate]	78 ± 1	~4000 (≈ 12 mM)	–	104 ± 0	–	–	–
COCCOCCOC(=O)[C@H](CCC(=O)C=[N+]=[N-])NC(C)=O [Compound 5m, 2-(2-Methoxyethoxy)ethyl (S)-2-acetamido-6-diazo-5-oxohexanoate]	57 ± 0	–	5	87 ± 2	–	–	–
CC(C)OC(=O)[C@H](CCC(=O)C=[N+]=[N-])NC(=O)[C@H](Cc1c[nH]c2ccccc12)NC(=O)C(Cl)Cl [Compound 8n, Isopropyl (S)-6-diazo-2-((S)-2-(2,2-dichloroacetamido)-3-(1H-indol-3-yl)propanamido)-5-oxohexanoate]	0 ± 0	–	49	–	69 ± 3 (ces1KO) %	–	–
CC(=O)N[C@@H](Cc1c[nH]c2ccccc12)C(=O)N[C@@H](CCC(=O)C=[N+]=[N-])C(=O)OC(C)(C)C [Compound 11a, tert-Butyl (S)-2-((S)-2-acetamido-3-(1H-indol-3-yl)propanamido)-6-diazo-5-oxohexanoate]	95 ± 3	–	41	88 ± 4	–	62 ± 1 (MP) %	–
CC(C)(C)OC(=O)[C@H](CCC(=O)C=[N+]=[N-])NC(=O)[C@H](Cc1c[nH]c2ccccc12)NC(=O)CN1CCOCC1 [Compound 11c, tert-Butyl (S)-2-((S)-3-(1H-indol-3-yl)-2-(2-morpholinoacetamido)propanamido)-6-diazo-5-oxohexanoate]	80 ± 2	–	106	95 ± 1	–	–	–
CN(C)CC(=O)N[C@@H](Cc1cn(C)c2ccccc12)C(=O)N[C@@H](CCC(=O)C=[N+]=[N-])C(=O)OC(C)(C)C [Compound 12a, tert-Butyl (S)-6-diazo-2-((S)-2-(2-(dimethylamino)acetamido)-3-(1-methyl-1H-indol-3-yl)propanamido)-5-oxohexanoate]	75 ± 1	–	80	104 ± 2	–	–	–
Cn1cc(C[C@H](NC(=O)OC2CN3CCC2CC3)C(=O)N[C@@H](CCC(=O)C=[N+]=[N-])C(=O)OC(C)(C)C)c2ccccc21 (stereo partly drawn) [Compound 12d, tert-Butyl (2S)-6-diazo-2-((2S)-3-(1-methyl-1H-indol-3-yl)-2-(((quinuclidin-3-yloxy)carbonyl)amino)propanamido)-5-oxohexanoate]	89 ± 1	–	–	–	88 ± 2 (Ces1KO) %	10 ± 2 (MP) %	65.59
C[C@H](NC(=O)CN(C)C)C(=O)N[C@@H](CCC(=O)C=[N+]=[N-])C(=O)OC(C)(C)C [Compound 13a, tert-Butyl (S)-6-diazo-2-((S)-2-(2-(dimethylamino)acetamido)propanamido)-5-oxohexanoate]	95 ± 1	–	32	99 ± 2	–	–	–
CC(C)(C)OC(=O)[C@H](CCC(=O)C=[N+]=[N-])NC(=O)CNC(=O)CN1CCOCC1 [Compound 14c, tert-Butyl (S)-6-diazo-2-(2-(2-morpholinoacetamido)acetamido)-5-oxohexanoate]	100 ± 1	–	15	96 ± 1	–	–	–
CN(C)CC(=O)N[C@@H](Cc1ccccc1)C(=O)N[C@@H](CCC(=O)C=[N+]=[N-])C(=O)OC(C)(C)C [Compound 15a, tert-Butyl (S)-6-diazo-2-((S)-2-(2-(dimethylamino)acetamido)-3-phenylpropanamido)-5-oxohexanoate]	81 ± 2	–	48	90 ± 1	93 ± 1 (ces1KO MP) %	67 ± 1 (MP) %	–
CC(C)C[C@H](NC(=O)CN(C)C)C(=O)N[C@@H](CCC(=O)C=[N+]=[N-])C(=O)OC(C)(C)C [Compound 16a, tert-Butyl (S)-6-diazo-2-((S)-2-(2-(dimethylamino)acetamido)-4-methylpentanamido)-5-oxohexanoate]	87 ± 0	–	45	87 ± 1	–	–	–
CN(C)CC(=O)N[C@@H](CCc1ccccc1)C(=O)N[C@@H](CCC(=O)C=[N+]=[N-])C(=O)OC(C)(C)C [Compound 20a, tert-Butyl (S)-6-diazo-2-((S)-2-(2-(dimethylamino)acetamido)-4-phenylbutanamido)-5-oxohexanoate]	69 ± 1	–	61.35	–	102 ± 2 (ces1KO) %	60 ± 7 (MP) %	–
CN(C)CC(=O)N[C@@H](Cc1ccc(C(F)(F)F)cc1)C(=O)N[C@@H](CCC(=O)C=[N+]=[N-])C(=O)OC(C)(C)C [Compound 23a, tert-Butyl (S)-6-diazo-2-((S)-2-(2-(dimethylamino)acetamido)-3-(4-(trifluoromethyl)phenyl)propanamido)-5-oxohexanoate]	72 ± 0	–	32.76	–	70 ± 14 (Ces1KO) %	79 ± 2 (MP) %	–
CN(C)CC(=O)NCCC(=O)N[C@@H](CCC(=O)C=[N+]=[N-])C(=O)OC(C)(C)C [Compound 25a, tert-Butyl (S)-6-diazo-2-(3-(2-(dimethylamino)acetamido)propanamido)-5-oxohexanoate]	99 ± 1	–	16	92 ± 4	–	–	–
COC(=O)[C@H](CCC(=O)C=[N+]=[N-])NC(=O)[C@H](Cc1c[nH]c2ccccc12)NC(=O)CN(C)C [Compound 28a, Methyl (S)-6-diazo-2-((S)-2-(2-(dimethylamino)acetamido)-3-(1H-indol-3-yl)propanamido)-5-oxohexanoate]	0 ± 0	–	21	–	–	–	–
[2H]C([2H])([2H])OC(=O)[C@H](CCC(=O)C=[N+]=[N-])NC(=O)[C@H](Cc1c[nH]c2ccccc12)NC(C)=O [Compound 28b, Methyl-d3 (S)-2-((S)-2-acetamido-3-(1H-indol-3-yl)propanamido)-6-diazo-5-oxohexanoate]	2 ± 0	–	10	–	–	–	–
CC(=O)N[C@@H](Cc1c[nH]c2ccccc12)C(=O)N[C@@H](CCC(=O)C=[N+]=[N-])C(=O)OC(CF)CF [Compound 28c, 1,3-Difluoropropan-2-yl (S)-2-((S)-2-acetamido-3-(1H-indol-3-yl)propanamido)-6-diazo-5-oxohexanoate]	1 ± 0	–	11	–	–	–	–
CNC(=O)[C@H](CCC(=O)C=[N+]=[N-])NC(=O)[C@H](Cc1c[nH]c2ccccc12)NC(C)=O [Compound 31b, (S)-2-((S)-2-Acetamido-3-(1H-indol-3-yl)propanamido)-6-diazo-N-methyl-5-oxohexanamide]	103 ± 4	–	1	90 ± 2	–	–	–
